# Data: US20260206763A1, “AMIDE COMPOUNDS OR SALTS THEREOF, BACTERICIDAL AGENTS FOR AGRICULTURE AND HORTICULTURE CONTAINING SAID COMPOUNDS, AND METHOD OF USING SAME” (NIHON NOHYAKU CO., LTD., priority 2022, published 2026)
# Legend:
# Format in all cases: cell-based
# [1] = test system: Botryosphaeria berengeriana
# [2] = test system: Botrytis cinerea; assay: microbe, parasite or virus in culture; details: read-out: median effective concentration (EC50), mycelium growth inhibitory activity
# [3] = test system: Sclerotinia sclerotirum; assay: microbe, parasite or virus in culture; details: read-out: median effective concentration (EC50), mycelium growth inhibitory activity
# [4] = test system: Cochliobolus miyabeanus; assay: Antifungal activity test, mycelium growth inhibition on PDA medium; details: Bipolaris oryzae, read-out: median effective concentration (EC50), mycelium growth inhibitory activity
# [5] = test system: Fusarium graminearum; assay: microbe, parasite or virus in culture; details: read-out: median effective concentration (EC50), mycelium growth inhibitory activity
Compound,"median effective concentration (EC50), spore germination inhibitory activity [1] [ppm]",EC50 [2] [µg/mL],EC50 [3] [µg/mL],EC50 [4] [µg/mL],EC50 [5] [µg/mL]
O=C(NCc1ccccn1)C1(c2ccc(C(F)(F)F)cc2)CC1(Cl)Cl (centres unmarked) [I-A-36],≤ 200,–,–,–,–
O=C1c2ccccc2COc2ccc(C3(C(=O)NCc4ccccn4)CC3(Cl)Cl)cc21 (centres unmarked) [I-A-78],–,≤ 200,≤ 200,≤ 200,–
CC(C)(C)c1ccc(C2(C(=O)NCc3ccccn3)CC2(Cl)Cl)cc1 (centres unmarked) [I-A-101],–,≤ 200,≤ 200,≤ 200,≤ 200
O=C(NCc1ccccn1)C1(c2ccc(-c3noc(C(F)(F)F)n3)cc2)CC1(Cl)Cl (centres unmarked) [I-A-132],–,≤ 200,≤ 200,≤ 200,≤ 200
O=C(NCc1ccccn1)C1(c2ccc(N=C(c3ccccc3)c3ccccc3)cc2)CC1(Cl)Cl (centres unmarked) [I-A-159],–,≤ 200,≤ 200,≤ 200,–
Cc1ccc(CNC(=O)C2(c3ccc(I)cc3)CC2(Cl)Cl)nc1 (centres unmarked) [I-A-257],–,≤ 200,≤ 200,≤ 200,≤ 200
Cc1ccc(CNC(=O)C2(c3ccc(-c4ccccc4F)cc3)CC2(Cl)Cl)nc1 (centres unmarked) [I-A-261],–,≤ 200,≤ 200,≤ 200,≤ 200
Cc1ccc(CNC(=O)C2(c3ccc(C4=CCCC4)cc3)CC2(Cl)Cl)nc1 (centres unmarked) [I-A-267],–,≤ 200,≤ 200,≤ 200,≤ 200
Cc1ccc(CNC(=O)C2(c3ccc(C4=CCCCC4)cc3)CC2(Cl)Cl)nc1 (centres unmarked) [I-A-268],–,≤ 200,≤ 200,≤ 200,≤ 200
Cc1ccc(CNC(=O)C2(c3ccc(S(=O)(=O)c4ccccc4)cc3)CC2(Cl)Cl)[n+]([O-])c1 (centres unmarked) [I-A-280],–,–,≤ 200,≤ 200,≤ 200
Cc1ccc(CNC(=O)C2(c3ccc(Oc4nc5ccccc5s4)cc3)CC2(Cl)Cl)nc1 (centres unmarked) [I-A-288],–,≤ 200,≤ 200,≤ 200,≤ 200
CC(C)(C)c1ccc(C2(C(=O)N3CCc4cccnc4C3)CC2(Cl)Cl)cc1 (centres unmarked) [I-A-371],–,–,≤ 200,≤ 200,≤ 200
